Experimental data from ChEMBL document CHEMBL5252661 (ACS Med Chem Lett, 2023).
The source made the active and inactive calls. The rule behind the calls is not given here.

What was measured:
[1] = target: T1, Peroxisome proliferator-activated receptor alpha (Homo sapiens) (UniProt Q07869); experiment: Binding affinity to PPARalpha (unknown origin) upto 10 uM by TR-FRET-based competitive binding assay
T1 sequence (whole entry): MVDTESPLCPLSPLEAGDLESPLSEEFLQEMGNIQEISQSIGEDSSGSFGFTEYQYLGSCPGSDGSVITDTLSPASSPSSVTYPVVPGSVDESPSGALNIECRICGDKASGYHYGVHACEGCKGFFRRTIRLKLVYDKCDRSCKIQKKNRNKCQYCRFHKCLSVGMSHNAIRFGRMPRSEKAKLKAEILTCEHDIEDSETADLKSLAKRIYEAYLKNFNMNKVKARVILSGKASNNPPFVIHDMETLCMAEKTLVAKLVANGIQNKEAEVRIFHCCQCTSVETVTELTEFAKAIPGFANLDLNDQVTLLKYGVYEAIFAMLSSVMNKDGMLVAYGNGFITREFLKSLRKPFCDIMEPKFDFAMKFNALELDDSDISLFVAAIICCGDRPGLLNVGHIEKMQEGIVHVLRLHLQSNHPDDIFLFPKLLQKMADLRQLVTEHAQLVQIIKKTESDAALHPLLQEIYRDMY

[2] = target: T2, Peroxisome proliferator-activated receptor delta (Homo sapiens) (UniProt Q03181); experiment: Binding affinity to PPARdelta (unknown origin) upto 10 uM by TR-FRET-based competitive binding assay
T2 sequence (whole entry): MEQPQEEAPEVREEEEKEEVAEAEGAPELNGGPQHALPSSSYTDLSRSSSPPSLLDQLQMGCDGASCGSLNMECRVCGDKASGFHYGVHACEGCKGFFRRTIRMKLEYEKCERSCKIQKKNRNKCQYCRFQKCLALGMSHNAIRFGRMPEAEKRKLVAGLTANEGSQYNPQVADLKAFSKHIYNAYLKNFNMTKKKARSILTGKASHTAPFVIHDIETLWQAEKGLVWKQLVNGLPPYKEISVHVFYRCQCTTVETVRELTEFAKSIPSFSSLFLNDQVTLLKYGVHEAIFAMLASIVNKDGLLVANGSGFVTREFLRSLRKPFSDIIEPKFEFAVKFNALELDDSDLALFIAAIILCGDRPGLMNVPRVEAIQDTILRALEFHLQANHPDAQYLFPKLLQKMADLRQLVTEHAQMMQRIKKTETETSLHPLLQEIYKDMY

Mesenchymal stem cells [3] = experiment: Induction of adiponectin secretion in human BMMSC cells at 10 uM in presence of IDX induction medium by ELISA assay; format: functional, cell-based
[4] = Induction of adiponectin secretion in human BMMSC cells in presence of IDX induction medium by ELISA assay; format: functional, cell-based; conditions: Mesenchymal stem cells
[5] = target: T3, Peroxisome proliferator-activated receptor gamma (Homo sapiens, UniProt P37231); experiment: Partial agonist activity at PPARgamma (unknown origin) by TR-FRET-based competitive binding assay
T3 sequence (P37231 whole entry): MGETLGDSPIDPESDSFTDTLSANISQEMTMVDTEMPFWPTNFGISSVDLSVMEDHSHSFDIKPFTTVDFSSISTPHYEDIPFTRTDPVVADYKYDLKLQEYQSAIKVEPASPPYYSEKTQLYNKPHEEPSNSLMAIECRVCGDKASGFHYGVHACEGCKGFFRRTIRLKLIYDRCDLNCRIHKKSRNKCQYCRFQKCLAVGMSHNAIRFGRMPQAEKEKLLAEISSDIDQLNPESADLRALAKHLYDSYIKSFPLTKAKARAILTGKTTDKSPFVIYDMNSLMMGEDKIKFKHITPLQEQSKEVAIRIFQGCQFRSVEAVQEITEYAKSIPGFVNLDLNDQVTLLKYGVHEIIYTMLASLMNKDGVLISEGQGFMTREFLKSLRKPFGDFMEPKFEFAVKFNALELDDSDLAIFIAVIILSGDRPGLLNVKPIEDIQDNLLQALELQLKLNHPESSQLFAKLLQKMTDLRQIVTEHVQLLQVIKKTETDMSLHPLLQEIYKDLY

[6] = Induction of adiponectin secretion in human BMMSC cells assessed as fold increase in adiponectin level at 10 uM in presence of IDX induction medium by ELISA assay; format: functional, Mesenchymal stem cells
Mesenchymal stem cells [7] = experiment: Upregulation of ADIPOQ mRNA expression in human BMMSC cells at 10 uM in presence of IDX induction medium by qRT-PCR assay; format: functional, cell-based
Mesenchymal stem cells [8] = experiment: Upregulation of FABP4 mRNA expression in human BMMSC cells at 10 uM in presence of IDX induction medium by qRT-PCR assay; format: functional, cell-based
Mesenchymal stem cells [9] = experiment: Upregulation of PPARgamma mRNA expression in human BMMSC cells at 10 uM in presence of IDX induction medium by qRT-PCR assay; format: functional, cell-based
Mesenchymal stem cells [10] = experiment: Induction of adiponectin secretion in human BMMSC cells assessed as increase in number of lipid droplets at 10 uM in presence of IDX induction medium by Oil Red O staining based inverted microscopic analysis; format: functional, cell-based
Mesenchymal stem cells [11] = experiment: Induction of adiponectin secretion in human BMMSC cells assessed as increase in size of lipid droplets at 10 uM in presence of IDX induction medium by Oil Red O staining based inverted microscopic analysis; format: functional, cell-based
[12] = target: T3, Peroxisome proliferator-activated receptor gamma; experiment: Binding affinity to PPARgamma (unknown origin) by TR-FRET-based competitive binding assay
Mesenchymal stem cells [13] = experiment: Potency index, ratio of EC50 for chrysin to EC50 for test compound for induction of adiponectin secretion in human BMMSC cells; format: functional
[14] = target: T3, Peroxisome proliferator-activated receptor gamma; experiment: Agonist activity at PPARgamma LBD (unknown origin) assessed as increase in recruitment of coactivator RAP250 to PPARgamma LBD by TR-FRET-based nuclear receptor coactivator assay

Row | Compound | Activity [1] | Activity [2] | Activity (Mesenchymal stem cells [3]) | EC50 [4] [µM] | fold change (FC) [6] | also measured
1 | COc1cc(OCc2ccccc2)cc2oc(-c3ccccc3)cc(=O)c12 | inactive | inactive | – | – | – | –
2 | O=c1cc(-c2ccccc2)oc2cc(O)cc(OCc3ccc(Cl)cc3)c12 | inactive | inactive | Active | – | – | –
3 | CCCc1nc2c(C)cc(-c3nc4ccccc4n3C)cc2n1Cc1ccc(-c2ccccc2C(=O)O)cc1 | – | – | – | 4.7 | – | Ki [5]: 1.08 µM
4 | O=c1cc(-c2ccccc2)oc2cc(OCc3ccccc3)cc(OCc3ccccc3)c12 | inactive | inactive | Active | – | – | –
5 | CCc1ccc(CCOc2ccc(CC3SC(=O)NC3=O)cc2)nc1 (centres undefined) [PIOGLITAZONE] | – | – | – | 0.5 | – | –
6 | CC(C)=CCOc1cc(OCC=C(C)C)c2c(=O)cc(-c3ccccc3)oc2c1 | inactive | inactive | Active | 4 | 4.8 | Activity (Mesenchymal stem cells [7]): Active; Activity (Mesenchymal stem cells [8]): Active; Activity (Mesenchymal stem cells [9]): Active; Activity (Mesenchymal stem cells [10]): Active; Activity (Mesenchymal stem cells [11]): Active; Ki [12]: 0.37 µM; Ratio EC50 (Mesenchymal stem cells [13]): 9
7 | O=c1cc(-c2ccccc2)oc2cc(OCc3ccccc3)cc(O)c12 | inactive | inactive | Active | – | – | –
8 | CC(C)=CCOc1cc(OCc2ccccc2)cc2oc(-c3ccccc3)cc(=O)c12 | inactive | inactive | Active | – | 3.3 | –
9 | O=c1cc(-c2ccccc2)oc2cc(O)cc(O)c12 [CHRYSIN] | inactive | inactive | Active | 77.7 | 2.3 | Activity (Mesenchymal stem cells [10]): Active; Activity (Mesenchymal stem cells [11]): Active
10 | O=c1cc(-c2ccccc2)oc2cc(O)cc(OCc3ccc(F)cc3)c12 | inactive | inactive | Active | – | – | –
11 | CC(C)=CCOc1cc(OCc2ccccc2)c2c(=O)cc(-c3ccccc3)oc2c1 | inactive | inactive | Active | 8.5 | 3.8 | Activity (Mesenchymal stem cells [7]): Active; Activity (Mesenchymal stem cells [8]): Active; Activity (Mesenchymal stem cells [9]): Active; Activity (Mesenchymal stem cells [10]): Active; Activity (Mesenchymal stem cells [11]): Active; Ki [12]: 0.55 µM; EC50 [14]: 19.6 µM; Ratio EC50 (Mesenchymal stem cells [13]): 9
12 | O=c1cc(-c2ccccc2)oc2cc(O)cc(OCc3ccccc3)c12 | inactive | inactive | Active | – | – | –
13 | C=CCOc1cc(O)cc2oc(-c3ccccc3)cc(=O)c12 | inactive | inactive | Active | – | – | –
